Experimental data: PMC2913955, “Whole-cell fungal transformation of precursors into dyes” (Microbial Cell Factories, 2010)
≈ marks a conversion by molar mass, not a printed value. Where “and” joins values, the source holds several entries; their conditions need not be identical. Identical values can stand only once. Marks after values point to notes of the source that are not given here.

Tests used:
[1] = Cyclic voltammetry of precursors (oxidation and reduction potentials); type: physicochemical; settings: for Eo (oxidation potential) / Er (reduction potential): 1 mM precursor, 100 mM Na-tartrate buffer pH 4.5, graphite working electrode, Ag/AgCl reference; for oxidation and reduction peaks: pH 4.5, scan rates of 25 to 200 mV/s
Protocol: To find correlations between the degree of precursor transformation by fungi and its oxidation potential, cyclic voltammetry (CV) was done. All the tested compounds were characterized using CV at a graphite working electrode at pH 4.5.
Cyclic voltammetry of the tested precursors was performed using an MTM-Anko apparatus type M161 (Poland) equipped with a graphite working electrode, a platinum counter electrode, and an Ag/AgCl reference electrode. The precursors were dissolved using 100 mM Na-tartrate buffer, pH 4.5, to 1 mM final concentration. […] All potentials in this work were referred to the Ag/AgCl reference electrode.

[2] = Autoxidation of precursors on agar plates without actively growing mycelium (control samples); type: physicochemical; settings: 1 mM precursor in GPA agar; for autoxidation (in words): control samples without mycelium; for Precursors autoxidation: without mycelium; on Precursors autoxidation: key: - no; -/+ - slightly; + high; ++ very high
Protocol: (§1) Agar-plate screening of several different precursors, benzoic and naphthalene derivatives was performed using fungal biomass as a biocatalyst (Table 1). Among these precursors were chemicals consisting of amino-, hydroxy-, nitro-, sulfonic- and carboxy- substituents. The ability of the fungi to grow in the presence of the precursors and to transform the latter into coloured products was monitored during 14 days of the experiment. […] In order to check the autoxidation ability of the precursors, the appearance of their coloured products without the presence of actively growing mycelium was monitored (control samples).
(§2) The agar-plate screening test was performed using sterile 24-well tissue culture plates (16.2 mm in diameter). Each well contained 2.5 mL (± 0.2 mL) of sterile GPA medium with the addition of 2% agar and a precursor at a concentration of 1 mM. Each well was inoculated with one agar plug (3 mm in diameter) from the leading edge of colony, which had been maintained on MEA for at least 7 days at 25°C. The plates were incubated at 25°C, and the ability of the fungi to grow and transform the precursors into coloured products was monitored over the next 14 days.

[3] = test system: Caco-2 cells; experiment: Neutral Red uptake assay (NRU) cytotoxicity; type: cell-based, human; settings: Caco-2, precursor itself; for IC50: Homo sapiens
Protocol: The cytotoxicity of precursors and products was tested using the Neutral Red uptake assay (NRU) with Caco-2 cells (Table 5). The EU classifies a chemical to be not environmentally toxic if the IC50 is above 0.1 mg/mL, which was the case for the selected products as measured with the NRU test. […] In the case of the dyes obtained after transformation of AHBS and ANS by FF25, AB123, or TV7, all the samples had IC50's of more than 1 mg/mL and were essentially non-toxic. In the case of control cultures, growing without the addition of precursors, only the sample of TV7 was slightly toxic (IC50 = 0.85 mg/mL) while other control cultures (AB123, CU139, and FF25) had IC50's higher than one (Table 5).
The toxicity of precursors and products was evaluated using the Neutral Red uptake assay (NRU) with Caco-2 human intestinal cell-line as an in vitro test system. Samples of products were lyophilized and then dissolved in dimethyl sulfoxide (DMSO) to a stock solution concentration of 100 mg/mL. The cytotoxicity of dyes was expressed as the half-maximal inhibitory concentration (IC50 - mg/mL), where values higher than 1 represented low cytotoxicity, values within the range from 0.1 to 1 represented medium cytotoxicity, and values below 0.1 represented high cytotoxicity of samples [10]. Additionally, the cytotoxicity of the fungal liquid culture without precursors and products was checked as a control.

[4] = test system: Abortiporus biennis (AB123); experiment: Agar-plate screening test, transformation of precursors into coloured products; type: cell-based; settings: strain AB123, 1 mM precursor
Protocol: as §1
(§3) The colour intensity of the products obtained during the biotransformation of the precursors by fungi was analyzed after 7 days of cultivation. This intensity was expressed by different numbers; the value 0 expressed a lack of colour and the values in the range from 1 to 4 expressed a rising intensity of colour.
as §2

[5] = test system: Cerrena unicolor (CU139); experiment: as above; type: cell-based; settings: strain CU139, 1 mM precursor
Protocol: as §1, §3, §2

[6] = test system: Fomes fomentarius (FF25); experiment: as above; type: cell-based; settings: strain FF25, 1 mM precursor
Protocol: as §1, §3, §2

[7] = test system: Trametes versicolor (TV7); experiment: as above; type: cell-based; settings: strain TV7, 1 mM precursor
Protocol: as §1, §3, §2

Row | SMILES | Eo (oxidation potential) ([1]; scan rate 50 mV/s) [mV] | autoxidation (in words) [2] | Precursors autoxidation [2] | Er (reduction potential) ([1]; scan rate 50 mV/s) | other results
1 | Nc1ncccc1O [Precursor 2A3HP, 2-amino-3-hydroxypyridine] | 647 | very slight autoxidation | -/+ |  | IC50 [3]: 55 ± 28 µg/mL (≈ 499 µM)
2 | Nc1cc(S(=O)(=O)O)ccc1O [AHBS, 3-amino-4-hydroxybenzenesulfonic acid] | 518 |  | - | -103 mV | IC50 [3]: > 1000 µg/mL
3 | Oc1ccccc1O [Cat, 1,2-dihydroxybenzene] | 548 |  | - | 285 mV | 
4 | Nc1ccc(N)c(S(=O)(=O)O)c1 [2,5DABS, 2,5-diaminobenzenesulfonic acid] | 433 | very slight autoxidation | -/+ | -356 mV and -356^a mV | IC50 [3]: > 1000 µg/mL
5 | O=S(=O)(O)c1cc(O)c(O)c(S(=O)(=O)O)c1 [dHBdSA, 4,5-dihydroxy-1,3-benzene-disulfonic acid] |  |  | - |  | Eo (oxidation potential) ([1]; scan rate 25 mV/s): 914^b mV
6 | Nc1ccc(S(=O)(=O)O)c(N)c1 [2,4DABS, 2,4-diaminobenzenesulfonic acid] | 818 |  | - |  | 
7 | Nc1cc(S(=O)(=O)O)cc([N+](=O)[O-])c1O [AHNBS, 3-amino-4-hydroxy-5-nitrobenzenesulfonic acid] | 579 | very rapid and very intensive autoxidation | + | -92 mV | 
8 | Nc1ccccc1S(=O)(=O)O [Precursor A2SA, aniline-2-sulfonic acid] | 1013 |  | - | -0.5 mV | 
9 | Nc1cccc2c(S(=O)(=O)O)cccc12 [ANS, 5-amino-1-naphthalenesulfonic acid] | 680 |  | - |  | IC50 [3]: > 1000 µg/mL
10 | O=Cc1ccccc1S(=O)(=O)[O-].[Na+] [Precursor 2FBSA, 2-formylbenzenesulfonic acid sodium salt] |  |  | - |  | oxidation and reduction peaks [1]: did not exhibit
11 | O=S(=O)([O-])c1ccc2cc(O)ccc2c1.[Na+] [HNSA, 6-hydroxy-2-naphthalenesulfonic acid sodium salt] | 893 |  | - | -144 mV | 
12 | O.O=C(O)c1cc(S(=O)(=O)O)ccc1O [Precursor 5SSA, 5-sulfosalicylic acid hydrate] |  |  | - |  | oxidation and reduction peaks [1]: did not exhibit
13 | Oc1ccc2ccc(O)cc2c1 [DHN, 2,7-dihydroxynaphtalene] | 672 | very slight autoxidation | -/+ |  | IC50 Precursor [3]: 107 ± 3.6 µg/mL (≈ 668 µM)
14 | Nc1c(O)cc(S(=O)(=O)O)c2ccccc12 [Precursor 4AHNS, 4-amino-3-hydroxy-1-naphthalenesulfonic acid] | 251 | very rapid and very intensive autoxidation | ++ |  | 
15 | Nc1ccc2cc(S(=O)(=O)O)cc(O)c2c1 [Precursor 6AHNS, 6-amino-4-hydroxy-2-naphthalenesulfonic acid] | 499 | very slight autoxidation | -/+ |  | 
16 | Nc1cccc(S(=O)(=O)O)c1 [Precursor 3ABS, 3-aminobenzenesulfonic acid] | 968 |  | - | 5.4^a mV | 
17 | O.O.O.O.Oc1ccccc1-c1ccccc1.[Na] [Precursor 2PP, 2-phenylphenol sodium salt tetrahydrate] | 790 |  | - |  | growth of mycelium in the presence of precursor [4]: unable to grow; growth of mycelium in the presence of precursor [5]: unable to grow; growth of mycelium in the presence of precursor [6]: unable to grow; growth of mycelium in the presence of precursor [7]: unable to grow
